Where “and” joins values, the source holds several entries; their conditions need not be identical. Identical values can stand only once.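 Assay format: 96-well plates, 48-hour exposure. Here, GI50 denotes the concentration required for 50% inhibition of growth. At the TGI there is no net growth.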
How the values were obtained:
Experiment in all cases: growth of human tumour cells (NCI), 48 h
[1] = test system: CAKI-1 renal
[2] = test system: COLO 205 colon
[3] = test system: NCI-H226 lung
[4] = test system: UACC-62 melanoma
[5] = test system: NCI/ADR-RES ovarian
[6] = test system: MDA-MB-231 breast
[7] = test system: SR leukemia
[8] = test system: MOLT-4 leukemia
[9] = test system: ACHN renal
[10] = test system: NCI-H460 lung
[11] = test system: SW-620 colon
[12] = test system: DU-145 prostate
[13] = test system: NCI-H522 lung
[14] = test system: NCI-H23 lung
[15] = test system: HOP-62 NSCLC
[16] = test system: TK-10 renal
[17] = test system: IGROV1 ovarian
[18] = test system: OVCAR-4 ovarian
[19] = test system: MALME-3M melanoma
[20] = test system: SF-539 CNS
[21] = test system: RPMI-8226 leukemia
[22] = test system: KM12 colon
[23] = test system: A549 NSCLC
[24] = test system: HS 578T breast
[25] = test system: LOX IMVI melanoma
[26] = test system: HCC-2998 colon
[27] = test system: OVCAR-5 ovarian
[28] = test system: U251 CNS
[29] = test system: 786-0 renal
[30] = test system: CCRF-CEM leukemia
[31] = test system: SF-295 CNS
[32] = test system: HL-60(TB) leukemia
[33] = test system: OVCAR-3 ovarian
[34] = test system: SK-MEL-5 melanoma
[35] = test system: A498 renal
[36] = test system: MDA-MB-435
[37] = test system: K-562 leukemia
[38] = test system: SK-MEL-28 melanoma
[39] = test system: MDA-N
[40] = test system: UO-31 renal
[41] = test system: T-47D breast
[42] = test system: HT29 colon
[43] = test system: HCT-116 colon
[44] = test system: PC-3 prostate
[45] = test system: MCF7 breast
[46] = test system: OVCAR-8 ovarian
[47] = test system: EKVX NSCLC
[48] = test system: BT-549 breast
[49] = test system: UACC-257 melanoma
[50] = test system: HCT-15 colon
[51] = test system: SN12C renal
[52] = test system: SNB-19 CNS
[53] = test system: M14 melanoma
[54] = test system: SNB-75 CNS
[55] = test system: HOP-92 NSCLC
[56] = test system: SF-268 CNS
[57] = test system: SK-MEL-2 melanoma
[58] = test system: SK-OV-3 ovarian
[59] = test system: RXF 393 renal

SMILES: CC(=O)OCCCCn1cnc2c(Cl)nc(Nc3ccccc3)nc21
- TGI [1]: 62 µM
- TGI [2]: > 100 µM
- TGI [3]: > 100 µM
- TGI [4]: > 100 µM
- TGI [5]: > 100 µM
- TGI [6]: > 100 µM
- TGI [7]: > 100 µM
- TGI [8]: > 100 µM
- TGI [9]: > 100 µM
- TGI [10]: > 100 µM
- TGI [11]: > 100 µM
- TGI [12]: > 100 µM
- TGI [13]: 87.4 µM
- TGI [14]: > 100 µM
- TGI [15]: > 100 µM
- TGI [16]: > 100 µM
- TGI [17]: > 100 µM
- TGI [18]: > 100 µM
- TGI [19]: > 100 µM
- TGI [20]: > 100 µM
- TGI [21]: > 100 µM
- TGI [22]: > 100 µM
- TGI [23]: > 100 µM
- TGI [24]: > 100 µM
- TGI [25]: > 100 µM
- TGI [26]: > 100 µM
- TGI [27]: > 100 µM
- TGI [28]: > 100 µM
- TGI [29]: > 100 µM
- TGI [30]: > 100 µM
- TGI [31]: > 100 µM
- TGI [32]: > 100 µM
- TGI [33]: > 100 µM
- TGI [34]: > 100 µM
- TGI [35]: > 100 µM
- TGI [36]: > 100 µM
- TGI [37]: > 100 µM
- TGI [38]: > 100 µM
- TGI [39]: > 100 µM
- TGI [40]: > 100 µM
- TGI [41]: > 100 µM
- TGI [42]: > 100 µM
- TGI [43]: > 100 µM
- TGI [44]: > 100 µM
- TGI [45]: > 100 µM
- TGI [46]: > 100 µM
- TGI [47]: > 100 µM
- TGI [48]: > 100 µM
- TGI [49]: > 100 µM
- TGI [50]: > 100 µM
- TGI [51]: > 100 µM

SMILES: Cc1c(C#N)c(N)n(C2OC(CO)C(O)C(O)C2O)c(=S)c1C#N (stereo unspecified)
- GI50 [1]: 24.4 µM and > 100 µM
- TGI [1]: > 100 µM
- TGI [3]: > 100 µM
- TGI [4]: > 100 µM
- TGI [52]: > 100 µM
- TGI [6]: > 100 µM
- TGI [7]: > 100 µM
- TGI [53]: > 100 µM
- TGI [8]: > 100 µM
- TGI [9]: > 100 µM
- TGI [10]: > 100 µM
- TGI [11]: > 100 µM
- TGI [12]: > 100 µM
- TGI [13]: > 100 µM
- TGI [14]: > 100 µM
- TGI [15]: > 100 µM
- TGI [16]: > 100 µM
- TGI [17]: > 100 µM
- TGI [18]: > 100 µM
- TGI [19]: > 100 µM
- TGI [20]: > 100 µM
- TGI [21]: > 100 µM
- TGI [22]: > 100 µM
- TGI [23]: > 100 µM
- TGI [24]: > 100 µM
- TGI [25]: > 100 µM
- TGI [26]: > 100 µM
- TGI [27]: > 100 µM
- TGI [28]: > 100 µM
- TGI [29]: > 100 µM
- TGI [30]: > 100 µM
- TGI [31]: > 100 µM
- TGI [32]: > 100 µM
- TGI [54]: > 100 µM
- TGI [55]: > 100 µM
- TGI [33]: > 100 µM
- TGI [34]: > 100 µM
- TGI [35]: > 100 µM
- TGI [37]: > 100 µM
- TGI [38]: > 100 µM
- TGI [56]: > 100 µM
- TGI [39]: > 100 µM
- TGI [40]: > 100 µM
- GI50 [41]: > 100 µM
- TGI [41]: > 100 µM
- TGI [42]: > 100 µM
- TGI [43]: > 100 µM
- TGI [44]: > 100 µM
- GI50 [57]: 28.8 µM and > 100 µM
- TGI [57]: > 100 µM
- TGI [45]: > 100 µM
- TGI [46]: > 100 µM
- TGI [47]: > 100 µM
- GI50 [48]: 18.5 µM and > 100 µM
- TGI [48]: 68.6 µM and > 100 µM
- TGI [58]: > 100 µM
- TGI [49]: > 100 µM
- TGI [50]: > 100 µM
- TGI [59]: > 100 µM
- TGI [51]: > 100 µM

Reference: PubChem BioAssay (NCI)
